According to US7541368B2, “Pyrazoles as inhibitors of tumor necrosis factor” (Aventis Pharmaceuticals Inc., priority 2003, dated 2009):

Molecular target: T1, Inactive N-terminal His6 tagged murine P38 (Mus musculus, UniProt P47811)
T1 construct: His6 (N); made in house
Experiment: p38 cascade assay (HTRF; inactive p38 activated by MKK-6, ATF-2 phosphorylation)
Type: biochemical
Details: inactive p38 preincubated with compound, then MKK-6, ATF-2, ATP; read-out: 50% inhibition in the p38 cascade assay at concentrations within the range
Method: The homogeneous time resolved fluorescence method (HTRF) assay measured the phosphorylation of human activating transcription factor (ATF)-2 protein by P38 following activation by MKK-6 and was run in A384 well plate format. […] MBP-tagged mouse MKK-6 (final concentration 50 nM), GST-tagged ATF-2 (fmal concentration 200 nM) and ATP (final concentration 50 μM) were then added and the incubation continued for 90 min. p38, MKK-6 and ATF-2 were prepared in the Protein Production Group, Aventis Pharmaceuticals. XL665 labeled anti-GST antibody (Cis Bio International) and cryptate labeled anti-pbospho-ATF2 antibody (Cis Bio International) were then added to generate the specific signal proportional to the phosphorylation of the substrate. The close proximity of XL665 labeled anti-GST antibody/phosphorylated GST-ATF2 complex and the cryptate labeled anti-phospho-ATF2 antibody results in a fluorescence transfer from cryptate to XL665. The resulting fluorescence signal was than read on a LJL Acquest set at multi-method mode using a fluorescence filter set (E=360 nm, Em=615/665 nm) with UV dichroic mirror (Integration time: 300000 μs). The results are reported as IC50 values. Compounds were tested over the concentration range of 3×10^−10M to 3×10^−5M.

T1 sequence (P47811 whole entry): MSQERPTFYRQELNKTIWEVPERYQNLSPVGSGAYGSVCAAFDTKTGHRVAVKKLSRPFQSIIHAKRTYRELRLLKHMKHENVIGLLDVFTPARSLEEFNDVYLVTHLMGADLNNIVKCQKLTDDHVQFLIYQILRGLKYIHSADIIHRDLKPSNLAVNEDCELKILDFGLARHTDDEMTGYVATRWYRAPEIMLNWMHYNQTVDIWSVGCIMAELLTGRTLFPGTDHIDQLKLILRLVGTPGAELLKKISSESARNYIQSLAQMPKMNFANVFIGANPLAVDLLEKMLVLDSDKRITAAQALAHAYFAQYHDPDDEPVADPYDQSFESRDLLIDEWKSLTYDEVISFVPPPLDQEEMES

Row | IC50 [nM] | SMILES
1 | 10 to 100 | COC(=O)CCC(=O)N1CCC(Cc2cccc(NC(=O)Nc3cc(C(C)(C)C)nn3-c3ccc(C)cc3)c2)CC1 [Compound A174, 4-(4-{3-[3-(5-tert-Butyl-2-p-tolyl-2H-pyrazol-3-yl)-ureido]-benzyl}-piperidin-1-yl)-4-oxo-butyric acid methyl ester]
2 | 10 to 100 | Cc1ccc(-n2nc(C(C)(C)C)cc2NC(=O)Nc2ccc(CC3CCN(C(=O)c4ccc(O)nc4)CC3)cc2)cc1 [Compound A333, 1-(5-tert-Butyl-2-p-tolyl-2H-pyrazol-3-yl)-3-{4-[1-(6-hydroxy-pyridine-3-carbonyl)-piperidin-4-ylmethyl]-phenyl}-urea]
3 | 10 to 100 | Cc1ccc(-n2nc(C(C)(C)C)cc2NC(=O)Nc2ccc(CC3CCN(C(=O)c4coc5c4C(=O)CCC5)CC3)cc2)cc1 [Compound A342, 1-(5-tert-Butyl-2-p-tolyl-2H-pyrazol-3-yl)-3-{4-[1-(4-oxo-4,5,6,7-tetrahydro-benzofuran-3-carbonyl)-piperidin-4-ylmethyl]-phenyl}-urea]
4 | 10 to 100 | CC(=O)Nc1cccc(C(=O)N2C3CCC2CC(Cc2cccc(NC(=O)Nc4cc(C(C)(C)C)nn4-c4ccc(C)cc4)c2)C3)c1 (stereo not drawn) [Compound A707, N-[3-(3-{3-[3-(5-tert-Butyl-2-p-tolyl-2H-pyrazol-3-yl)-ureido]-benzyl}-8-aza-bicyclo[3.2.1]octane-8-carbonyl)-phenyl]-acetamide]
5 | 10 to 100 | Cc1ccc(-n2nc(C(C)(C)C)cc2NC(=O)Nc2cccc(CC3CC4CCC(C3)N4S(=O)(=O)c3ccc4c(c3)OCCN4C)c2)cc1 (stereo not drawn) [Compound A880, 1-(5-tert-Butyl-2-p-tolyl-2H-pyrazol-3-yl)-3-{3-[8-(4-methyl-3,4-dihydro-2H-benzo[1,4]oxazine-7-sulfonyl)-8-aza-bicyclo[3.2.1]oct-3-ylmethyl]-phenyl}-urea]
6 | 10 to 100 | COc1ccc(OC(=O)N2CCC(Cc3ccc(NC(=O)Nc4cc(C(C)(C)C)nn4-c4ccc(C)cc4)cc3)CC2)cc1 [Compound A1605, 4-{4-[3-(5-tert-Butyl-2-p-tolyl-2H-pyrazol-3-yl)-ureido]-benzyl}-piperidine-1-carboxylic acid 4-methoxy-phenyl ester]
7 | 10 to 100 | CC(=O)N1CCC(Cc2ccc(NC(=O)Nc3cc(C(C)(C)C)nn3-c3ccc(C)cc3)cc2)CC1 [Compound A1637, 1-[4-(1-acetyl-piperidin-4-ylmethyl)-phenyl]-3-(5-tert-butyl-2-p-tolyl-2H-pyrazol-3-yl)-urea]
8 | 10 to 100 | Cc1ccc(-n2nc(C(C)(C)C)cc2NC(=O)Nc2cccc(CC3CCN(C(=O)c4cc5ccccc5o4)CC3)c2)cc1 [Compound A1638, 1-{3-[1-(benzofuran-2-carbonyl)-piperidin-4-ylmethyl]-phenyl}-3-(5-tert-butyl-2-p-tolyl-2H-pyrazol-3-yl)-urea]
9 | 10 to 100 | Cc1ccc(-n2nc(C(C)(C)C)cc2NC(=O)Nc2cccc(CC3CCN(C(=O)C4CCNCC4)CC3)c2)cc1 [Compound A1639, 1-(5-tert-Butyl-2-p-tolyl-2H-pyrazol-3-yl)-3-{3-[1-(piperidine-4-carbonyl)-piperidin-4-ylmethyl]-phenyl}-urea]
10 | 10 to 100 | Cc1ccc(-n2nc(C(C)(C)C)cc2NC(=O)Nc2ccc(CC3CC4CCC(C3)N4C(=O)c3cccc(C)n3)cc2)cc1 (stereo not drawn) [Compound A1640, 1-(5-tert-Butyl-2-p-tolyl-2H-pyrazol-3-yl)-3-{4-[8-(6-methyl-pyridine-2-carbonyl)-8-aza-bicyclo[3.2.1]oct-3-ylmethyl]-phenyl}-urea]
11 | 10 to 100 | CC(=O)C(=CC(=O)c1ccccc1)NC(=O)N1CCC(Cc2ccc(NC(=O)Nc3cc(C(C)(C)C)nn3-c3ccc(C)cc3)cc2)CC1 [Compound A1641, 4-{4-[3-(5-tert-Butyl-2-p-tolyl-2H-pyrazol-3-yl)-ureido]-benzyl}-piperidine-1-carboxylic acid (1-acetyl-3-oxo-3-phenyl-propenyl)-amide]
12 | 10 to 100 | Cc1ccc(-n2nc(C(C)(C)C)cc2NC(=O)Nc2ccc(CC3CCN(C(=O)O[C@@H]4C[C@H](C)CC[C@H]4C(C)C)CC3)cc2)cc1 [Compound A1644, 4-{4-[3-(5-tert-Butyl-2-p-tolyl-2H-pyrazol-3-yl)-ureido]-benzyl}-piperidin-1-carboxylic acid (1R,2S,5R)-2-isopropyl-5-methyl-cyclohexyl ester]

Tested on: TNF-alpha release in THP-1 cells
Experiment: LPS-induced TNF-alpha release in THP-1 cells
Type: cell-based
Details: Homo sapiens, THP-1, LPS-stimulated THP-1 cells; read-out: 50% inhibition in the LPS-induced TNF-alpha release in THP-1 cells assay at concentrations within the range
Summary of the method: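 Undifferentiated THP-1 monocytes (1×10^6 cells/ml, 1% FCS) preincubated 1 h at 37° C with compound (1×10^−9 to 1×10^−6 M, 0.3% DMSO), then stimulated with LPS (20 μg/ml) for 18 h. Supernatant TNF-alpha measured by sandwich ELISA (TMB read-out), interpolated from a log/log standard curve (0.125-16 ng/ml).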

Row | SMILES | IC50 [nM]
13 | Cc1ccc(-n2nc(C(C)(C)C)cc2NC(=O)Nc2cccc(CC3CC4CCC(C3)N4C(=O)Cc3ccc(F)c(F)c3)c2)cc1 (stereo not drawn) [Compound A719, 1-(5-tert-Butyl-2-p-tolyl-2H-pyrazol-3-yl)-3-(3-{8-[2-(3,4-difluoro-phenyl)-acetyl]-8-aza-bicyclo[3.2.1]oct-3-ylmethyl}-phenyl)-urea] | 10 to 500
14 | Cc1ccc(-n2nc(C(C)(C)C)cc2NC(=O)Nc2cccc(CC3CC4CCC(C3)N4C(=O)Cc3ccc(F)cc3F)c2)cc1 (stereo not drawn) [Compound A720, 1-(5-tert-Butyl-2-p-tolyl-2H-pyrazol-3-yl)-3-(3-{8-[2-(2,4-difluoro-phenyl)-acetyl]-8-aza-bicyclo[3.2.1]oct-3-ylmethyl}-phenyl)-urea] | 10 to 500
15 | Cc1ccc(-n2nc(C(C)(C)C)cc2NC(=O)Nc2cccc(CC3CC4CCC(C3)N4C(=O)Cc3ccccc3F)c2)cc1 (stereo not drawn) [Compound A761, 1-(5-tert-Butyl-2-p-tolyl-2H-pyrazol-3-yl)-3-(3-{8-[2-(2-fluoro-phenyl)-acetyl]-8-aza-bicyclo[3.2.1]oct-3-ylmethyl}-phenyl)-urea] | 10 to 500
16 | CC(=O)NCC(=O)N1C2CCC1CC(Cc1cccc(NC(=O)Nc3cc(C(C)(C)C)nn3-c3ccc(C)cc3)c1)C2 (stereo not drawn) [Compound A766, N-[2-(3-{3-[3-(5-tert-Butyl-2-p-tolyl-2H-pyrazol-3-yl)-ureido]-benzyl}-8-aza-bicyclo[3.2.1]oct-8-yl)-2-oxo-ethyl]-acetamide] | 10 to 500
17 | COc1cccc(C(=O)N2C3CCC2CC(Cc2cccc(NC(=O)Nc4cc(C(C)(C)C)nn4-c4ccc(C)cc4)c2)C3)c1OC (stereo not drawn) [Compound A786, 1-(5-tert-Butyl-2-p-tolyl-2H-pyrazol-3-yl)-3-{3-[8-(2,3-dimethoxy-benzoyl)-8-aza-bicyclo[3.2.1]oct-3-ylmethyl]-phenyl}-urea] | 10 to 500
18 | COc1cccc(CC(=O)N2C3CCC2CC(Cc2ccc(NC(=O)Nc4cc(C(C)(C)C)nn4-c4ccc(C)cc4)cc2)C3)c1OC (stereo not drawn) [Compound A1312, 1-(5-tert-Butyl-2-p-tolyl-2H-pyrazol-3-yl)-3-(4-{8-[2-(2,3-dimethoxy-phenyl)-acetyl]-8-aza-bicyclo[3.2.1]oct-3-ylmethyl}-phenyl)-urea] | 10 to 500
19 | Cc1ccc(-n2nc(C(C)(C)C)cc2NC(=O)Nc2ccc(CC3CC4CCC(C3)N4C(=O)Cc3ccc(F)cc3F)cc2)cc1 (stereo not drawn) [Compound A1364, 1-(5-tert-Butyl-2-p-tolyl-2H-pyrazol-3-yl)-3-(4-{8-[2-(2,4-difluoro-phenyl)-acetyl]-8-aza-bicyclo[3.2.1]oct-3-ylmethyl}-phenyl)-urea] | 10 to 500
20 | COc1ccccc1CC(=O)N1C2CCC1CC(Cc1ccc(NC(=O)Nc3cc(C(C)(C)C)nn3-c3ccc(C)cc3)cc1)C2 (stereo not drawn) [Compound A1404, 1-(5-tert-Butyl-2-p-tolyl-2H-pyrazol-3-yl)-3-(4-{8-[2-(2-methoxy-phenyl)-acetyl]-8-aza-bicyclo[3.2.1]oct-3-ylmethyl}-phenyl)-urea] | 10 to 500
21 | COc1cc(N)c(Cl)cc1C(=O)N1C2CCC1CC(Cc1ccc(NC(=O)Nc3cc(C(C)(C)C)nn3-c3ccc(C)cc3)cc1)C2 (stereo not drawn) [Compound A1441, 1-{4-[8-(4-Amino-5-chloro-2-methoxy-benzoyl)-8-aza-bicyclo[3.2.1]oct-3-ylmethyl]-phenyl}-3-(5-tert-butyl-2-p-tolyl-2H-pyrazol-3-yl)-urea] | 10 to 500
22 | Cc1ccc(-n2nc(C(C)(C)C)cc2NC(=O)Nc2ccc(CC3CCN(C(=O)C4=Cc5occc5CC4)CC3)cc2)cc1 [Compound A1642, 1-(5-tert-Butyl-2-p-tolyl-2H-pyrazol-3-yl)-3-{4-[1-(4,5-dihydro-benzofuran-6-carbonyl)-piperidin-4-ylmethyl]-phenyl}-urea] | 10 to 500
23 | COc1ccc(OC)c(CC(=O)N2CCC(Cc3cccc(NC(=O)Nc4cc(C(C)(C)C)nn4-c4ccc(C)cc4)c3)CC2)c1 [Compound A1646, 1-(5-tert-Butyl-2-p-tolyl-2H-pyrazol-3-yl)-3-(3-{1-[2-(2,5-dimethoxy-phenyl)-acetyl]-piperidin-4-ylmethyl}-phenyl)-urea] | 10 to 500
24 | COc1ccc(OC)c(C(=O)N2C3CCC2CC(Cc2ccc(NC(=O)Nc4cc(C(C)(C)C)nn4-c4ccc(C)cc4)cc2)C3)c1 (stereo not drawn) [Compound A1647, 1-(5-tert-Butyl-2-p-tolyl-2H-pyrazol-3-yl)-3-{4-[8-(2,5-dimethoxy-benzoyl)-8-aza-bicyclo[3.2.1]oct-3-ylmethyl]-phenyl}-urea] | 10 to 500
